Test results published in patent publication US10736912B2, “Compositions containing PUFA and/or uridine and methods of use thereof” (MASSACHUSETTS INSTITUE OF TECHNOLOGY, priority 2005, dated 2020).

Assays:
[1] = system: brain phospholipid levels; assay: Brain phospholipid levels in gerbils given UMP diet and/or PUFA by gavage; assay type: in vivo, gerbil; settings: for Brain phospholipid levels: Table 6
Procedure: (§1) Cells were homogenized in 100 volumes of ice-cold deionized water using a tissue degrader (Polytron PT 10-35, Kinematica AG, Switzerland); 1 ml of aliquots were then mixed with 3 ml of chloroform+methanol mixture (2:1 v/v) and vortexed vigorously for 30 seconds. After cooling for 1 h on ice, the mixture was mixed sequentially with 3 ml of chloroform+methanol mixture (2:1 v/v) and 1 ml of ice-cold deionized water. The mixture was vortexed vigorously and allowed to stand overnight in the cold room (18 h). The organic (lower) and aqueous (upper) phases of the mixtures were separated by centrifugation (10 min at 4° C.; 1000 g). An aliquot (2 ml) of the upper phase was used for determination of CDP-Choline (see below), and 0.1-0.4 ml aliquots of the lower phase were dried under vacuum for phospholipid analysis. Residues of 0.1 ml aliquots of the lower phase were assayed for total phospholipid content by measuring phosphorus. Residues of 0.4 ml aliquots of the lower phase were reconstituted in 40 μl methanol and subjected to thin-layer chromatography using silica G plates (Adsorbosil Plus-1®, Alltech), and a system consisting of chloroform/ethanol/triethylamine/water (30:34:30:8) as the mobile phase. Phospholipid standards were used to identify the corresponding bands under UV light after the plates were sprayed with 0.1% diphenylhexatriene in petroleum ether. Bands for individual phospholipid classes (PC, PE, SM, PS and PI) were scraped off the plates and extracted into 1 ml of methanol; dried under vacuum; and assayed for phosphorus content. Total phosphorus was determined by comparison with standard curves by using KH2PO4 run with each assay. To each sample was added 0.5 ml of 4.5% HclO4/27% H2SO4 and tubes were heated at 180° C. for 3 h. After cooling to room temperature, 5 ml of the color reagent (a 10:1 dilution of solutions containing 2.5 mg/ml ammonium molybdate, 8.2 mg/ml sodium acetate and 100 mg/ml ascorbic acid respectively) was added and the tubes were incubated for 2 h, 37° C. Absorbance was measured spectrophotometrically at 820 nm. Phospholipid mass was determined by multiplying the phosphorus content by 25.
Control standard diet (Table 4) consisted of Teklad Global 16% protein rodent diet (Harlan Teklad, Madison, Wis.), which contained 0.1% choline chloride (CC), corresponding to a daily dose of 50 mg/kg/day. UMP was provided as 0.5% UMP·2Na^+ weight/weight, added to the control diet, also prepared by Harlan Teklad, corresponding to 240 mg/kg/day UMP. DHA was administered as 300 mg/kg/day in 200 microliter (mcL)/day 5% Arabic Gum solution, while groups not receiving DHA were administered vehicle (5% Arabic Gum) alone. DHA was provided by Nu-Chek Prep (Elysian, Minn.) and UMP by Numico (Wagenigen, NL).
Gerbils were anesthetized with ketamine and xylazine (80 and 10 mg/kg bwt, i.p.) and sacrificed by immersing the head into liquid nitrogen for 2 min, followed by decapitation. Brains were immediately and quickly (30 seconds) removed using a bone rongeur and stored at −80° C.
Frozen brain hemispheres were weighed and homogenized in 100 volumes of ice-cold deionized water using a tissue degrader (Polytron PT 10-35, Kinematica AG, Switzerland), then analyzed as described in Example 1.
Protein in whole brain homogenate sample was measured for using bicinchoninic acid reagent (Perkin Elmer, Norwalk, Conn., USA). DNA was measured by measuring 460 nm emission of samples on a fluorometer in the presence of bisbenzimidizole, a fluorescent dye known as Hoechst H 33258 (American Hoechst Corporation), which has an excitation maximum at 356 nm and an emission maximum of 458 when bound to DNA.
Male gerbils weighing 80-100 g were divided into 4 groups of 8 gerbils and administered the supplements depicted in Table 1: […]

SHSY-5Y cells = assay: 14C-choline incorporation into phospholipids in SHSY-5Y cells; assay type: cell-based, human; settings: for Phospholipid synthesis enhanced: 10 μM fatty acid, 18 hr, FIG. 3A
Procedure: SHSY-5Y cells were grown to near confluency in DMEM+10% FBS in 35 mm dishes. Cells were incubated for 18 hr in serum-free DMEM+1% FBS containing 30 μM choline+/−10 μM of DHA, arachidonic acid, or palmitic acid. Cells were then labeled, and labeled phospholipids were quantified as described for Example 1.
DHA was dissolved in ethanol to a […] concentration and frozen in 10 microliter aliquots at −80° C. For each experiment, one aliquot was diluted in ethanol to 10 micromolar; the volume giving the desired final solution in incubation medium was mixed with an equal volume of BSA solution (1 gm/ml).
The effect of omega-6 fatty acids on phospholipid synthesis was next examined in SHSY-5Y cells, a human neuroblastoma cell line. In this case, phospholipid synthesis was enhanced by arachidonic acid, an omega-6 fatty acid, but not by DHA or palmitic acid (FIG. 3A).
The effect of arachidonic acid on phospholipid synthesis in SHSY-5Y cells was further characterized as described for omega-3 fatty acids and PC-12 cells in Example 2.

brain CDP-choline levels = assay: Brain CDP-choline and CDP-ethanolamine levels in gerbils; assay type: in vivo, gerbil; settings: 28 days
Description: FIGS. 5A and 5B. FIG. 5A illustrates the effect Effects of DHA on brain CDP-choline levels (FIG. 5A) and while FIG. 5B illustrates the effect of DHA on brain CDP-ethanolamine levels (FIG. 5B). Groups of 8 gerbils received either a control or a UMP-containing diet, and, by gavage, DHA (in a vehicle of 5% gum Arabic solution) or 5% gum Arabic solution alone for 28 days. On the 29th day brains were harvested and assayed for CDP-choline. Data are presented as means±SEM. Statistical analysis was performed using one- or two-way ANOVA followed by Tukey test. a: P<0.05 when compared with the values for control diet plus vehicle group; b: P<0.05 when compared with values for UMP diet plus vehicle group.
Aliquots (2 ml) of the upper (aqueous) phase were dried under a vacuum, reconstituted, and injected into an HPLC. The dried samples were reconstituted in 100-200 μl water and were analyzed by HPLC on an anion exchange column (Alltech Hypersil APS-2, […], 250×4.6 mm). CDP-choline was eluted with a linear gradient of buffers A (H3PO4, 1.75 mM, pH 2.9) and B (NaH2PO2, 500 mM, pH 4.5) from 0 to 100% B over period of 30 min. With this system, CDP-choline was resolved from closely co-eluting substances such as UMP in an isocratic system over a period of 40 min. The retention time for CDP-choline was 9.5 min. The column was washed with buffer B at the end of each experiment and every several days to remove retained nucleotides. Individual nucleotide peaks were detected by UV absorption at 280 nm and were identified by comparison with the positions of authentic standards, as well as by the addition of nucleotide standards to samples.
To determine the effect of PUFA administration on CDP-choline levels, brain CDP-choline levels were measured in the animals from the previous Example. Administration of DHA and/or UMP decreased CDP-choline levels (FIG. 5A) and CDP-ethanolamine levels (FIG. 5B). DHA reduced CDP-choline levels by 26% (compared with those receiving just the control diet and DHA's vehicle), and in UMP-treated gerbils by 21% (compared with those receiving UMP-containing diet and DHA's vehicle) (both P<0.05).

[2] = system: brain phospholipid levels; assay: Brain phospholipid levels in rat pups of treated pregnant and nursing mothers; assay type: in vivo; settings: rat pups, postnatal day 20, mean
Procedure: In another study, pregnant rats were allowed to consume ad libitum, for 10 days before parturition and 20 days while nursing, either a choline-containing control diet or this diet supplemented with uridine as UMP; half of each group also received DHA or its diluent daily, by gavage. Pups were then sacrificed and brain slices were examined to determine numbers of hippocampal dendritic spines.
Pregnant and nursing rats were administered DHA and/or uridine as described in Example 9. At 20 days post-birth, rats were sacrificed and brain samples were obtained and assayed for phospholipids. Administration of DHA alone increased brain PC, PI, PE, and sphingomyelin (SM) per cell (DNA) by 36, 166, 38, and 78%, respectively. UMP markedly amplified the effects of DHA to 66, 210, 68, and 99% of control, respectively (Table 8). These increases were greater than those observed in adult animals. Similar results were obtained when normalizing to protein (Table 9). Thus, administration of DHA and/or uridine to pregnant and nursing mothers is able to increase phospholipid levels in the offspring.

PC-12 cells = assay: 14C-choline incorporation into phospholipids in PC-12 cells; assay type: cell-based; settings: 5 μM fatty acid, 18 hr pre-incubation, then 14C-choline 2.5 hr; FIG. 1
Procedure: PC-12 cells were maintained in Dulbecco's modified Eagle's medium (DMEM)+10% fetal bovine serum (FBS). For experiments, cells were grown in quintuplicate collagen-coated 35 millimeter (mm) dishes. Cells were incubated for 18 hours (hr) in serum-free DMEM containing 28 μM choline+/−5 micromolar (μM) of DHA, oleic acid, or palmitic acid. Cells were then labeled for 2.5 hr with 0.5 microcurie (μCi)/ml ^14C-choline in serum-free DMEM containing 10-micromolar (μM) choline.
as §1, with “To each sample was added 0.5 ml of 4.5% HclO4/27% H2SO4 and tubes were heated at 180° C. for 3 h. After cooling to room temperature, 5 ml of the color reagent (a 10:1 dilution of solutions containing 2.5 mg/ml ammonium molybdate, 8.2 mg/ml sodium acetate and 100 mg/ml ascorbic acid respectively) was added and the tubes were incubated for 2 h, 37° C.” left out
In order to assess the effect of omega-3 fatty acids on phospholipid synthesis, PC-12 cells were incubated with ^14C-labeled choline, following an 18-hour pre-incubation with or without DHA. Incorporation of label into phospholipids was then measured. […]
To further characterize the stimulation of phospholipid synthesis by omega-3 fatty acids, PC-12 cells were pre-treated with different doses of DHA and exposed to labeled choline as described in Example 1, then incorporation of ^14C-label into phospholipids was measured. […]

[3] = Table 9, nmol per microgram DNA

CCCCCC=CCC=CCC=CCC=CCCCC(=O)O [AA, 5,8,11,14-eicosatetraenoic acid]
Brain phospholipid levels ([1]; 3 weeks): increased
Phospholipid synthesis enhanced (SHSY-5Y cells): enhanced
Synthesis of total phospholipids, PC, and phosphatidylethanolamine (SHSY-5Y cells; range of dosages, FIG. 3B): increased

CCC=CCC=CCC=CCC=CCC=CCCCC(=O)O [EPA, 5,8,11,14,17-eicosapentaenoic acid]
Brain phospholipid levels ([1]; 3 weeks): increased

O=c1ccn([C@@H]2O[C@H](COP(=O)(O)O)[C@@H](O)[C@H]2O)c(=O)[nH]1 [UMP, uridine monophosphate]
CDP-choline levels (FIG. 5A) (brain CDP-choline levels): decreased
CDP-ethanolamine levels (FIG. 5B) (brain CDP-choline levels): decreased
Effects on brain phospholipids after 1 week of treatment ([1]; 1 week): no significant effects
Increases in brain phospholipids ([1]; 3 weeks): smaller but still significant increases
Increase in levels of total phospholipids over control group ([1]; 4 weeks, gerbil brain): 5%
Total PtdCho ([1]; Table 5 part A): 171 ± 8 nmol/mg prt
Total PtdEtn ([1]; Table 5 part A): 84 ± 8 nmol/mg prt
Total PtdSer ([1]; Table 5 part A): 35 ± 3 nmol/mg prt
Total Ptdins ([1]; Table 5 part A): 31 ± 2 nmol/mg prt
Total PtdEtn ([1]; Table 5 part B, One Week): 63 ± 4 nmol/mg prt
Total PtdSer ([1]; Table 5 part B, One Week): 39 ± 1 nmol/mg prt
Total Ptdins ([1]; Table 5 part B, One Week): 20 ± 4 nmol/mg prt
Total PtdEtn ([1]; Table 5 part B, Three Weeks): 87 ± 4 nmol/mg prt
Total PtdSer ([1]; Table 5 part B, Three Weeks): 42 ± 2 nmol/mg prt
Total Ptdins ([1]; Table 5 part B, Three Weeks): 25 ± 1 nmol/mg prt
PC ([2]; Table 8, nmol per mg protein): 95.3 nmol/mg protein
PE ([2]; Table 8, nmol per mg protein): 75.6 nmol/mg protein
PI ([2]; Table 8, nmol per mg protein): 3.92 nmol/mg protein
SM ([2]; Table 8, nmol per mg protein): 5.27 nmol/mg protein
Total Phospholipids ([2]; Table 8, nmol per mg protein): 282.2 nmol/mg protein
PC [2, 3]: 8.11 nmol/microgram DNA
PE [2, 3]: 6.56 nmol/microgram DNA
PI [2, 3]: 0.352 nmol/microgram DNA
SM [2, 3]: 0.458 nmol/microgram DNA
Total Phospholipids [2, 3]: 24.78 nmol/microgram DNA

CCCCCCCC/C=C\CCCCCCCC(=O)O [oleic acid, reference compound]
Phosphatidylcholine (PC) synthesis significantly increased (incorporation of 14C label into PC) (PC-12 cells): not

CCCCCCCCCCCCCCCC(=O)O [palmitic acid, reference compound]
Phosphatidylcholine (PC) synthesis significantly increased (incorporation of 14C label into PC) (PC-12 cells): not
Phospholipid synthesis enhanced (SHSY-5Y cells): not
